From PubChem BioAssay AID342 (DTP/NCI, 2004)
“And” between values parts separate entries of the source, which are not always exact repeats. Equal entries are not always repeated.

Test system: Swiss mice, Sarcoma 180 sc, mean tumor weight T/C
Assay: NCI In Vivo Anticancer Drug Screen. Data for tumor model Sarcoma 180 (subcutaneous) in Swiss mice
Conditions: endpoint: mean tumor weight, higher = larger tumour
Outline: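 Mice bearing transplanted tumors were treated with compound, and survival or tumor size was measured. Values are expressed as the treated-group measurement (T) divided by the vehicle-treated control measurement (C).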

Clc1ccccc1/C=C/C=C1c2ccccc2-c2ccccc21
T/C (dose: 222.0 mg/kg/injection, schedule: Q01DX007 (ip), vehicle: other): 72 % of control | T/C (dose: 222.0 mg/kg/injection, schedule: Q01DX007 (ip), vehicle: saline): 83 % of control | T/C (dose: 333.0 mg/kg/injection, schedule: Q01DX007 (ip), vehicle: other): 78 % of control | T/C (dose: 333.0 mg/kg/injection, schedule: Q01DX007 (ip), vehicle: saline): 95 % of control | T/C (dose: 492.0 mg/kg/injection, schedule: Q01DX007 (ip), vehicle: saline): 56 % of control | T/C (dose: 500.0 mg/kg/injection, schedule: Q01DX007 (ip), vehicle: other): 50 % of control | T/C (dose: 500.0 mg/kg/injection, schedule: Q01DX007 (ip), vehicle: saline): 79 % of control | T/C (dose: 750.0 mg/kg/injection, schedule: Q01DX007 (ip), vehicle: other): 49 % of control | T/C (dose: 1119.0 mg/kg/injection, schedule: Q01DX007 (ip), vehicle: saline): 58 % of control | T/C (dose: 1679.0 mg/kg/injection, schedule: Q01DX007 (ip), vehicle: saline): 54 % of control

CC(=O)[C@H]1CC[C@H]2[C@@H]3C[C@H](F)C4=CC(=O)CC[C@]4(C)[C@@]3(F)[C@@H](O)C[C@]12C
T/C (dose: 25.0 mg/kg/injection, schedule: Q01DX007 (sc), vehicle: steriod suspending solution): 65 % of control | T/C (dose: 37.0 mg/kg/injection, schedule: Q01DX007 (sc), vehicle: steriod suspending solution): 49 % of control | T/C (dose: 282.0 mg/kg/injection, schedule: Q01DX007 (sc), vehicle: steriod suspending solution): 41 % of control | T/C (dose: 423.0 mg/kg/injection, schedule: Q01DX007 (sc), vehicle: steriod suspending solution): 36 % of control

COC1=C(N(C)C)C(=O)c2ncccc2C1=O
T/C (dose: 12.5 mg/kg/injection, schedule: Q01DX007 (ip), vehicle: water): 86 % of control | T/C (dose: 25.0 mg/kg/injection, schedule: Q01DX007 (ip), vehicle: water): 72 % of control | T/C (dose: 50.0 mg/kg/injection, schedule: Q01DX007 (ip), vehicle: water): 92 % of control

CCOc1ccc2nc(S(N)(=O)=O)sc2c1
T/C (dose: 25.0 mg/kg/injection, schedule: Q01DX007 (ip), vehicle: carboxymethylcellulose (CMC)): 78 % of control | T/C (dose: 29.0 mg/kg/injection, schedule: Q01DX007 (ip), vehicle: carboxymethylcellulose (CMC)): 70 % of control | T/C (dose: 44.0 mg/kg/injection, schedule: Q01DX007 (ip), vehicle: carboxymethylcellulose (CMC)): 22 % of control | T/C (dose: 49.5 mg/kg/injection, schedule: Q#A X014 (ip), vehicle: methylcellulose (MC)): 29 % of control and 48 % of control | T/C (dose: 50.0 mg/kg/injection, schedule: Q01DX007 (ip), vehicle: carboxymethylcellulose (CMC)): 39 % of control | T/C (dose: 66.0 mg/kg/injection, schedule: Q01DX007 (ip), vehicle: carboxymethylcellulose (CMC)): 51 % of control | T/C (dose: 74.0 mg/kg/injection, schedule: Q#A X014 (ip), vehicle: methylcellulose (MC)): 13 % of control and 22 % of control | T/C (dose: 99.0 mg/kg/injection, schedule: Q01DX007 (ip), vehicle: carboxymethylcellulose (CMC)): 43 % of control | T/C (dose: 100.0 mg/kg/injection, schedule: Q01DX007 (ip), vehicle: carboxymethylcellulose (CMC)): 34 % of control

COc1ccccc1NC(=O)CSC(N)=O
T/C (dose: 110.0 mg/kg/injection, schedule: Q01DX007 (ip), vehicle: carboxymethylcellulose (CMC)): 78 % of control | T/C (dose: 165.0 mg/kg/injection, schedule: Q01DX007 (ip), vehicle: carboxymethylcellulose (CMC)): 74 % of control | T/C (dose: 250.0 mg/kg/injection, schedule: Q01DX007 (ip), vehicle: carboxymethylcellulose (CMC)): 61 % of control | T/C (dose: 375.0 mg/kg/injection, schedule: Q01DX007 (ip), vehicle: carboxymethylcellulose (CMC)): 28 % of control

O=C(c1ccccc1)C(C(=O)c1ccccc1)C(=O)c1ccccc1.O=C(c1ccccc1)C(C(=O)c1ccccc1)C(=O)c1ccccc1.[Cu]
T/C (dose: 55.0 mg/kg/injection, schedule: Q01DX007 (ip), vehicle: carboxymethylcellulose (CMC)): 68 % of control and 70 % of control | T/C (dose: 85.0 mg/kg/injection, schedule: Q01DX007 (ip), vehicle: carboxymethylcellulose (CMC)): 63 % of control and 84 % of control | T/C (dose: 190.0 mg/kg/injection, schedule: Q01DX007 (ip), vehicle: carboxymethylcellulose (CMC)): 60 % of control and 64 % of control | T/C (dose: 284.0 mg/kg/injection, schedule: Q01DX007 (ip), vehicle: carboxymethylcellulose (CMC)): 66 % of control

CC(C)C(=O)OCC1OC(n2cnc3c(=S)nc(N)[nH]c32)C(OC(=O)C(C)C)C1OC(=O)C(C)C (stereo unspecified)
T/C (dose: 6.0 mg/kg/injection, schedule: Q01DX007 (ip), vehicle: carboxymethylcellulose (CMC)): 72 % of control | T/C (dose: 9.0 mg/kg/injection, schedule: Q01DX007 (ip), vehicle: carboxymethylcellulose (CMC)): 42 % of control | T/C (dose: 14.0 mg/kg/injection, schedule: Q01DX007 (ip), vehicle: methylcellulose (MC)): 42 % of control | T/C (dose: 21.0 mg/kg/injection, schedule: Q01DX007 (ip), vehicle: carboxymethylcellulose (CMC)): 5 % of control and 21 % of control | T/C (dose: 21.0 mg/kg/injection, schedule: Q01DX007 (ip), vehicle: methylcellulose (MC)): 29 % of control | T/C (dose: 31.0 mg/kg/injection, schedule: Q01DX007 (ip), vehicle: carboxymethylcellulose (CMC)): 7 % of control | T/C (dose: 31.0 mg/kg/injection, schedule: Q01DX007 (ip), vehicle: methylcellulose (MC)): 22 % of control
